{"source": "ChEMBL document CHEMBL5465560", "about": "“Selectivity Literature for EUbOPEN Chemogenomic Library” (2024)", "key": {"[1]": {"biological_target": "Myosin-IIIa (Homo sapiens) (UniProt Q8NEV4)", "assay": "Selectivity interaction (KinomeScan (DiscoverX)) EUB0000229b MYO3A", "conditions": "at 10 µM"}, "[2]": {"biological_target": "Ribosomal protein S6 kinase alpha-2 (Homo sapiens) (UniProt Q15349)", "sequence (Q15349 whole entry)": "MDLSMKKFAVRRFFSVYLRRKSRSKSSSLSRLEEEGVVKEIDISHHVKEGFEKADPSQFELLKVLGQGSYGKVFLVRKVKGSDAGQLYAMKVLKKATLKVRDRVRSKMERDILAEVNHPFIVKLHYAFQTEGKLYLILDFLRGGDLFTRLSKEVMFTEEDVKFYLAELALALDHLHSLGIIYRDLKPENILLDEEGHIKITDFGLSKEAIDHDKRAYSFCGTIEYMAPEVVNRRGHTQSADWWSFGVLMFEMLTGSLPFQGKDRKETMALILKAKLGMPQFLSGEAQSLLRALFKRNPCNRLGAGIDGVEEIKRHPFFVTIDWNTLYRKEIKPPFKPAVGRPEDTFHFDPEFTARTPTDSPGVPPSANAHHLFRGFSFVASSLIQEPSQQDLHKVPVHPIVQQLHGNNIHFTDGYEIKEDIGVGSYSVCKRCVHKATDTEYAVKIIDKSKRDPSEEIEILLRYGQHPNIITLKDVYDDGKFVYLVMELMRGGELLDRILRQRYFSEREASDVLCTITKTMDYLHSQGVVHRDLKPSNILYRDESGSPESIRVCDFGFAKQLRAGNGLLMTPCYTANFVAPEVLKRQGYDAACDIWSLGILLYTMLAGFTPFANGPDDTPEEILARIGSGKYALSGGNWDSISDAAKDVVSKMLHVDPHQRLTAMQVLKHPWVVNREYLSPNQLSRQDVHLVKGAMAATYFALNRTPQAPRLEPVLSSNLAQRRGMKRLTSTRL", "assay": "Selectivity interaction (KinomeScan (DiscoverX)) EUB0000092b RPS6KA2", "conditions": "at 10 µM"}, "[3]": {"biological_target": "Cyclin-dependent kinase 5 (Homo sapiens, UniProt Q00535)", "sequence (Q00535 whole entry, looked up)": "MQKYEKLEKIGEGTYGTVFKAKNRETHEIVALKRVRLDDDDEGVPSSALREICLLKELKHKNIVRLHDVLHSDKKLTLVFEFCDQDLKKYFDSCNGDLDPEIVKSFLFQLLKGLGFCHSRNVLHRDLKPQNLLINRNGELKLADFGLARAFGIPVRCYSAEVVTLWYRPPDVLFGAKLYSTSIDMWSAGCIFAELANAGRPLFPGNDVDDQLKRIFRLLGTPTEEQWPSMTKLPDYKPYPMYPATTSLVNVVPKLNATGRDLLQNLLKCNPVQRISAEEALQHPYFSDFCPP", "assay": "Selectivity interaction (KinomeScan (DiscoverX)) EUB0000666a CDK5", "conditions": "at 10 µM"}, "[4]": {"biological_target": "Calcium/calmodulin-dependent protein kinase type II subunit alpha (Homo sapiens, UniProt Q9UQM7)", "sequence (Q9UQM7 whole entry)": "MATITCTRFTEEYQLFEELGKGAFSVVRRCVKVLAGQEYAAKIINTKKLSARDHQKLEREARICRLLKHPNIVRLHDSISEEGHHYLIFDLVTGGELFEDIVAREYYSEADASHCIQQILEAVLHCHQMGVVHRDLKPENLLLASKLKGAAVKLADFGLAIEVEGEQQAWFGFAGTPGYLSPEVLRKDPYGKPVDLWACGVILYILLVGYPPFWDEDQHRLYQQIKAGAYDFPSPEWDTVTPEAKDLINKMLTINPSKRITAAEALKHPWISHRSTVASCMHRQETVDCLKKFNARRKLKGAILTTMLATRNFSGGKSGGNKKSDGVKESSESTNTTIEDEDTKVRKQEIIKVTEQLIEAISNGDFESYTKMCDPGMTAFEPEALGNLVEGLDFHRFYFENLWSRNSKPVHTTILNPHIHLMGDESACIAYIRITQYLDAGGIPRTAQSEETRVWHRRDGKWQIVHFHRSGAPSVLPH", "assay": "Selectivity interaction (Kinase panel (Z-LYTE Assay)) EUB0001632a CAMK2A", "conditions": "at 10 µM"}, "[5]": {"biological_target": "T1, Scaffold protein ILK (Homo sapiens) (UniProt Q13418)", "T1 sequence (whole entry)": "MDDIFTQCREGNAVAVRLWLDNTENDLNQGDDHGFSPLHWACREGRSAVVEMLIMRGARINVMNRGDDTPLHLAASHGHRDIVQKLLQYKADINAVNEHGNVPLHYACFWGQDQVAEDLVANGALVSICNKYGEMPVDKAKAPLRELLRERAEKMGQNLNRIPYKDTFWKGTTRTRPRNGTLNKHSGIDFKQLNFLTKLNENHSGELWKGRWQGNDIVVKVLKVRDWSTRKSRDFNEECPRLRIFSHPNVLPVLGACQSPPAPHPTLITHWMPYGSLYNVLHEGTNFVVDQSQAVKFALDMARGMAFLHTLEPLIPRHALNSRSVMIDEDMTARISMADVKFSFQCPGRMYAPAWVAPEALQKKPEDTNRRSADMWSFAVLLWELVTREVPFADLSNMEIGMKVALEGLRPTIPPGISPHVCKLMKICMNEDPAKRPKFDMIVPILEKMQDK", "assay": "Selectivity interaction (ActivX KiNativ screen (kinase selectivity in THP-1 cell lysates)) EUB0000639a ILK", "type": "subcellular", "conditions": "lysate, at 0.04 µM"}, "[6]": {"biological_target": "Ribosomal protein S6 kinase alpha-2 (Homo sapiens) (UniProt Q15349)", "assay": "Selectivity interaction (ActivX KiNativ screen (kinase selectivity in THP-1 cell lysates)) EUB0000639a RPS6KA2", "type": "subcellular", "conditions": "lysate"}, "[7]": {"biological_target": "Leukocyte tyrosine kinase receptor (Homo sapiens, UniProt P29376)", "sequence (P29376 whole entry)": "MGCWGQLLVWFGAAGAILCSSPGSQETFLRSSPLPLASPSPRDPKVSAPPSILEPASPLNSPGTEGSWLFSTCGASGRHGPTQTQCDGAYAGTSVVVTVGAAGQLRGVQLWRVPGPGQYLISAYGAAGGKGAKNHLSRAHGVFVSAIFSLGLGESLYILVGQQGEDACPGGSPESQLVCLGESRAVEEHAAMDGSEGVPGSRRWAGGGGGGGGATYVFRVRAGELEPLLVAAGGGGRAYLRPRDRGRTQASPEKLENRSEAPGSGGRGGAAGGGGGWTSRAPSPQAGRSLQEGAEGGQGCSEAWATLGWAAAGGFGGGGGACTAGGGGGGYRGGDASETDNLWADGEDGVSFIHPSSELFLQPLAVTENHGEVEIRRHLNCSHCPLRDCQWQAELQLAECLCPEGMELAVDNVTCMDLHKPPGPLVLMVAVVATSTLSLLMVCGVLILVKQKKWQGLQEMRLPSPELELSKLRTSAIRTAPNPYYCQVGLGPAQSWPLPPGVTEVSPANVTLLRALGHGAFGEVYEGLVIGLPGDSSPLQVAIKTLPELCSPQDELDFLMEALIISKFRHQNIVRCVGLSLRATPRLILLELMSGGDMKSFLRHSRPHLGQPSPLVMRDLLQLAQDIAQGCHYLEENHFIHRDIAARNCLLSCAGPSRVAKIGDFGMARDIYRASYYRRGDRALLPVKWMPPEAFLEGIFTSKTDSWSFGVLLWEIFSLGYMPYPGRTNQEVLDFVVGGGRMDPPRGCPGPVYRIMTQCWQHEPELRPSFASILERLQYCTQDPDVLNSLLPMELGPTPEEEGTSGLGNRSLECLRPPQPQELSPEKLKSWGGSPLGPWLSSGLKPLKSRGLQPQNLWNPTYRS", "assay": "Selectivity interaction (Kinase panel (Invitrogen)) EUB0000639a LTK", "conditions": "at 200 nM"}, "[8]": {"biological_target": "Mast/stem cell growth factor receptor Kit (Homo sapiens, UniProt P10721)", "assay": "Selectivity interaction (Kinase panel (Invitrogen)) EUB0000639a KIT", "conditions": "at 200 nM"}, "[9]": {"biological_target": "Protein-tyrosine kinase 2-beta (Homo sapiens) (UniProt Q14289)", "sequence (Q14289 whole entry, looked up)": "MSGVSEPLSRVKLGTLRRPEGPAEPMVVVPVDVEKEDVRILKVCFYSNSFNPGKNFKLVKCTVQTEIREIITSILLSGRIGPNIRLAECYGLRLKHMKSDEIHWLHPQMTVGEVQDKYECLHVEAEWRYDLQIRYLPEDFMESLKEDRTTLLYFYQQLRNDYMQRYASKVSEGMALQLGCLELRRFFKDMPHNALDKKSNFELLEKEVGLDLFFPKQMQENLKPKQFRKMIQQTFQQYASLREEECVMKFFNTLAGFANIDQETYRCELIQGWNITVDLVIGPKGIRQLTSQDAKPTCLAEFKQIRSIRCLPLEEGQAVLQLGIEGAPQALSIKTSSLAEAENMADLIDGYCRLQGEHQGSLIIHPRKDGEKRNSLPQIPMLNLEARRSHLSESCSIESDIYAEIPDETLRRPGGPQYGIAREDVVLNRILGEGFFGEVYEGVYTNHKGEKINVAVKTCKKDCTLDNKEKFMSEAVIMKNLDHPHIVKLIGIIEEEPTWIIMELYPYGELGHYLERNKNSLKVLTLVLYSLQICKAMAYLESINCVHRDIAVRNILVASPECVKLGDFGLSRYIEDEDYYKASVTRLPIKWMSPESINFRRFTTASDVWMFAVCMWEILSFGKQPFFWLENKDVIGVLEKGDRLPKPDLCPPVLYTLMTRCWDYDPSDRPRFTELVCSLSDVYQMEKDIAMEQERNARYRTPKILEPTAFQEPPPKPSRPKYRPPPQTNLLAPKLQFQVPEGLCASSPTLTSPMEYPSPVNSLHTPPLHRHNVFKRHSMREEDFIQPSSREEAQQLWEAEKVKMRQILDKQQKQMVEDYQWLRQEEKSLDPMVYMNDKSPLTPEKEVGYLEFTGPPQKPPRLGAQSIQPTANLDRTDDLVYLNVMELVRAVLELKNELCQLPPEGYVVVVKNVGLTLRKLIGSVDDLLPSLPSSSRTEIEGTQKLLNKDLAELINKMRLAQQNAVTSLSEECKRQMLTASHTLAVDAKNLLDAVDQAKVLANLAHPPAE", "assay": "Selectivity interaction (ActivX KiNativ screen (kinase selectivity in THP-1 cell lysates)) EUB0000639a PTK2B", "type": "subcellular", "conditions": "lysate, at 0.04 µM"}, "[10]": {"biological_target": "T2, Dual specificity mitogen-activated protein kinase kinase 6 (Homo sapiens) (UniProt P52564)", "T2 sequence (whole entry)": "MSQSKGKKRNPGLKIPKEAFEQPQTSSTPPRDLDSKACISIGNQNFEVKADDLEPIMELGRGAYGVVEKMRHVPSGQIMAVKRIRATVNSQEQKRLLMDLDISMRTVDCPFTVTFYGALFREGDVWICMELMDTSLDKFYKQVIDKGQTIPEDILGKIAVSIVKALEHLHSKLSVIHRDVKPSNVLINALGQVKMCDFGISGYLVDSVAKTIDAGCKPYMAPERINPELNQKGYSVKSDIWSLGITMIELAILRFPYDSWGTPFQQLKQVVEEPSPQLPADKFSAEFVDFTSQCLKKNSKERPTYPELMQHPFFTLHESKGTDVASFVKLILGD", "assay": "Selectivity interaction (KinomeScan (DiscoverX)) EUB0000607a MAP2K6", "conditions": "at 10 µM"}, "[11]": {"biological_target": "Ephrin type-A receptor 2 (Homo sapiens) (UniProt P29317)", "sequence (P29317 whole entry)": "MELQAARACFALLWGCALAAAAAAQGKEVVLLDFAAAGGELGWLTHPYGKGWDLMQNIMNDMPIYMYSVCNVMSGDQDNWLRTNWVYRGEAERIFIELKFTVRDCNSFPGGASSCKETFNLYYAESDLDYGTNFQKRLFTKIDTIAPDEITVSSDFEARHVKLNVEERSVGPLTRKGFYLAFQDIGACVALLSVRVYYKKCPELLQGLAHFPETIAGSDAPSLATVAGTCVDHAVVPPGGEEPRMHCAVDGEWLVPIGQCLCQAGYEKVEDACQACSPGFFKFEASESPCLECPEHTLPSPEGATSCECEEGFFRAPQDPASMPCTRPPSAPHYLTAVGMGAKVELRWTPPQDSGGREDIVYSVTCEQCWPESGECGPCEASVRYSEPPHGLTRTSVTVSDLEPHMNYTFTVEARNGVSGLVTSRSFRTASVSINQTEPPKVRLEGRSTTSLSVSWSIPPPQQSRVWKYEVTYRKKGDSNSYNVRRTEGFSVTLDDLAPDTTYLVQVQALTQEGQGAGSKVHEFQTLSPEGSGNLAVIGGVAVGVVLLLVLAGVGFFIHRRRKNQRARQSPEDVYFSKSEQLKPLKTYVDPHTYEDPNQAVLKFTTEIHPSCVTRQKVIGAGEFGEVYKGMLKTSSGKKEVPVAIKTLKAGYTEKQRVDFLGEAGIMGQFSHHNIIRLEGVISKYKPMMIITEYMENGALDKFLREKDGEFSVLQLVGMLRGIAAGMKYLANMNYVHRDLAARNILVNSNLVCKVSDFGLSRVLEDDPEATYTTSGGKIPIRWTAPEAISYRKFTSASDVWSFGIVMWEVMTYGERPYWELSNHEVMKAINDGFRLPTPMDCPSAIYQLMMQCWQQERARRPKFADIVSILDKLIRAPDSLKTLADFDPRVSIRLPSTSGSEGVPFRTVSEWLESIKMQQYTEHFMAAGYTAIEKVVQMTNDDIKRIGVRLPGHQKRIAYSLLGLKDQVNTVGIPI", "assay": "Selectivity interaction (SelectScreen profiling (Invitrogen)) EUB0000607a EPHA2", "conditions": "at 2 µM"}, "[12]": {"biological_target": "T3, Serine/threonine-protein kinase LATS2 (Homo sapiens) (UniProt Q9NRM7)", "T3 sequence (whole entry)": "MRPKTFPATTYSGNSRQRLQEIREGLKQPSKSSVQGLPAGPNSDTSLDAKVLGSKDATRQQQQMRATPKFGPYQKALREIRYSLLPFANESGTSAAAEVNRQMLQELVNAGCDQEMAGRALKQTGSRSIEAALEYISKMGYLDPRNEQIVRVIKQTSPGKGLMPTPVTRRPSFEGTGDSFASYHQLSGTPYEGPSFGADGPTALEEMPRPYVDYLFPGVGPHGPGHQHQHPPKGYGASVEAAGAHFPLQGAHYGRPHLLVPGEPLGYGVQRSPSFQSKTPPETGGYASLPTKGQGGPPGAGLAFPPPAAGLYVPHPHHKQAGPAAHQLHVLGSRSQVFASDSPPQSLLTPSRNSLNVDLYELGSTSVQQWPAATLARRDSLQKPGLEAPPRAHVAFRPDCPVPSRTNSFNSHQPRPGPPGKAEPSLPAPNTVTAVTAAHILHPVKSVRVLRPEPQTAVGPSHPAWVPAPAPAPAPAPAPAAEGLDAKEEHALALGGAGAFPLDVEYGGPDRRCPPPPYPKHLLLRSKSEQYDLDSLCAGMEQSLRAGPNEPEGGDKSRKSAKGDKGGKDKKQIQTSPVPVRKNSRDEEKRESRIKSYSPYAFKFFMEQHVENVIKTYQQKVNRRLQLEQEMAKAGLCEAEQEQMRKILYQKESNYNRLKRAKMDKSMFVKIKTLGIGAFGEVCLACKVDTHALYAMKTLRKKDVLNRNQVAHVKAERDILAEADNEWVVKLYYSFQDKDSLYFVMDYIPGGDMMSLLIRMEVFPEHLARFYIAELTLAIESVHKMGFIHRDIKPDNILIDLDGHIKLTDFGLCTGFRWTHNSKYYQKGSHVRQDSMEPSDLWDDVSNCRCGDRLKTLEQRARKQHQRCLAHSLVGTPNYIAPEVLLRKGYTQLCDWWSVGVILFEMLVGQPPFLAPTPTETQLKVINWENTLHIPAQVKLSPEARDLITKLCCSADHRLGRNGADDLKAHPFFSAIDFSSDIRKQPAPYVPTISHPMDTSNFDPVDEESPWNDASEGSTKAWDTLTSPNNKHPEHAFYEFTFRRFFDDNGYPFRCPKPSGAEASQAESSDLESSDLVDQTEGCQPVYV", "assay": "Selectivity interaction (Ambit KINOMEscan and KiNATiv profiling in Jurkat cells) EUB0000090b LATS2", "type": "cell-based", "conditions": "at 1 µM"}, "[13]": {"biological_target": "Serine/threonine-protein kinase N1 (Homo sapiens, UniProt Q16512)", "assay": "Selectivity interaction (ActivX KiNativ screen (ex vivo kinase selectivity in human PBMCs)) EUB0001619a PKN1", "type": "cell-based", "conditions": "PBMC, at 1 µM"}, "[14]": {"biological_target": "Serine/threonine-protein kinase 26 (Homo sapiens, UniProt Q9P289)", "conditions": "PBMC, at 1 µM"}, "[15]": {"biological_target": "Dual specificity testis-specific protein kinase 1 (Homo sapiens) (UniProt Q15569)", "sequence (Q15569 whole entry, looked up)": "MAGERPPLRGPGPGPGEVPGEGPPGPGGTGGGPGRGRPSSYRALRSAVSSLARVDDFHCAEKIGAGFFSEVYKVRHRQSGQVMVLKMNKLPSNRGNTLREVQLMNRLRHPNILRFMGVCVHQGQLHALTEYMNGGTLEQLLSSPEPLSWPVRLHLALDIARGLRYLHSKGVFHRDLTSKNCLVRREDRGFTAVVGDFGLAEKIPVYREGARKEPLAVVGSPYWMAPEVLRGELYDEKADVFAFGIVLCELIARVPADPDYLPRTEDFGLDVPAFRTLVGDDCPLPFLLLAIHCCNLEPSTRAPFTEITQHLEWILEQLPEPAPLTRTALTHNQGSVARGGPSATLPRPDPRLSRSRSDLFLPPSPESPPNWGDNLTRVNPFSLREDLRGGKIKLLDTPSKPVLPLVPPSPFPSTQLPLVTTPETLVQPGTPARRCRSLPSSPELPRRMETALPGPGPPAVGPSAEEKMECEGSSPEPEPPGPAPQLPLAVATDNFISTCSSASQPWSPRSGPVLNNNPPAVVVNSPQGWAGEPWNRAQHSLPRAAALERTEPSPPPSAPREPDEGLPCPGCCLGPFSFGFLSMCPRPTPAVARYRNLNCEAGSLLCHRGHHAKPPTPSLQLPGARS", "assay": "Selectivity interaction (KinomeScan (DiscoverX)) EUB0001619a TESK1", "conditions": "at 1 µM"}}, "data": [{"smiles": "COc1cc(N(C)c2ccnc3ccc(C(F)(F)F)cc23)cc(OC)c1OC", "values": [{"measurement": "% binding", "setting": "[1]", "result": 94, "unit": "%"}]}, {"smiles": "CCC(=O)N1CCN(c2ccc(-n3c(=O)ccc4cnc5ccc(-c6cnc7ccccc7c6)cc5c43)cc2C(F)(F)F)CC1", "values": [{"measurement": "% of control", "setting": "[2]", "result": 85, "unit": "%"}]}, {"smiles": "O=C(NOC[C@H](O)CO)c1ccc(F)c(F)c1Nc1ccc(I)cc1F", "values": [{"measurement": "% of control", "setting": "[3]", "result": 100, "unit": "%"}]}, {"smiles": "Cn1cc(-n2cnc3c(NCc4nc5cc(Cl)c(Cl)cc5[nH]4)nc(N4CCOCC4)nc32)cn1", "values": [{"measurement": "% of control", "setting": "[4]", "result": -0.947, "unit": "%"}]}, {"smiles": "CC[C@@H]1[C@H](F)C(=O)N[C@@H]1COc1nccc2cc(C(N)=O)c(OC)cc12", "note": "[ZIMLOVISERTIB]", "values": [{"measurement": "% of inhibition", "setting": "[5]", "result": -18.4, "unit": "%"}, {"measurement": "% of inhibition", "setting": "[6]; at 0.01 µM", "result": 16.9, "unit": "%"}, {"measurement": "% of inhibition", "setting": "[6]; at 0.04 µM", "result": 12.4, "unit": "%"}, {"measurement": "% of inhibition", "setting": "[6]; at 0.2 µM", "result": 10.3, "unit": "%"}, {"measurement": "% of inhibition", "setting": "[6]; at 1 µM", "result": 8.6, "unit": "%"}, {"measurement": "% of inhibition", "setting": "[6]; at 5 µM", "result": 11.7, "unit": "%"}, {"measurement": "% of inhibition", "setting": "[7]", "result": 5.58, "unit": "%"}, {"measurement": "% of inhibition", "setting": "[8]", "result": 2.99, "unit": "%"}, {"measurement": "% of inhibition", "setting": "[9]", "result": 6.6, "unit": "%"}]}, {"smiles": "CNC(=O)Nc1ccc(-c2nc(N3CC4CCC(C3)O4)c3cnn(C4CCC5(CC4)OCCO5)c3n2)cc1", "values": [{"measurement": "% of control", "setting": "[10]", "result": 95, "unit": "%"}, {"measurement": "% of inhibition", "setting": "[11]", "result": 8, "unit": "%"}]}, {"smiles": "CN(C)C/C=C/C(=O)Nc1ccc(C(=O)N2CCCC(Nc3ncc(Cl)c(-c4c[nH]c5ccccc45)n3)C2)cc1", "note": "(centres undefined)", "values": [{"measurement": "% of control", "setting": "[12]", "result": 100, "unit": "%"}]}, {"smiles": "N#Cc1cccc(-c2c[nH]c3ncnc(N4CCOCC4)c23)c1", "values": [{"measurement": "% of inhibition", "setting": "[13]", "result": 31, "unit": "%"}, {"measurement": "% of inhibition", "setting": "[14]", "result": 65, "unit": "%"}, {"measurement": "% of control", "setting": "[15]", "result": 100, "unit": "%"}]}]}
